Assay results reported in PMC10675077, “Antimicrobial Properties of New Polyamines Conjugated with Oxygen-Containing Aromatic Functional Groups” (Molecules, 2023).
≈ marks a conversion by molar mass, not a printed value. Where two headings read alike, the source gives them in different places. Marks after values point to notes of the source that are not given here.

Experiments:
[1] = system: Staphylococcus aureus BHI; test: MIC, microdilution in culture medium, S. aureus; assay type: cell-based; conditions: 20 h, 37 °C, average of at least three experiments; for MIC: Staphylococcus aureus, read-out: MIC, Bacteria, S. aureus BHI
[2] = system: Yeast (S. cerevisiae strains); test: MIC, yeast (strain not specified); assay type: cell-based, Saccharomyces cerevisiae; conditions: for MIC: Saccharomyces cerevisiae, read-out: MIC Yeast
Method: The determination of the MIC for yeast strains was carried out following a similar procedure to that of the polyamines and antifungal reference agents: Serial dilutions of each one in phosphate buffer (20 mM, pH 7.4, 0.5 mL) were prepared and mixed with a suspension of yeast cells (OD600 0.04 in SC-ura 2X (VWR, Atlanta, GA, USA), 0.5 mL). […] Experiments were carried out at least three times in all cases.

E. coli JM101 = test: Minimal bactericidal concentration, E. coli; assay type: cell-based, Escherichia coli; conditions: overnight incubation, plating on LB, bacteriostatic if growth at 4 times the MIC; for MBC: Escherichia coli, JM101
Method: (§1) Once the MIC was known, the samples were prepared as described in the previous section with polyamine concentrations corresponding to the MIC and half, double, and four times its value. After overnight incubation with the microorganisms, 30 μL of a ten-fold dilution of each one was spread in LB (in the case of bacterial strains) or SC-ura (for yeast strains) plates. They were incubated for 20 h at 37 °C (bacteria) or 48 h at 30 °C (yeasts), and the level of growth was determined. […] Experiments were carried out at least three times.

S. cerevisiae strains = test: Minimal fungicidal concentration, S. cerevisiae strains; assay type: cell-based, Saccharomyces cerevisiae; conditions: fungistatic = growth on SC-ura plates after incubation at four times the MIC
Method: as §1

[3] = Cytotoxicity, flow cytometry viability assay with propidium iodide; assay type: cell-based, human; conditions: human, Jurkat cells (human lymphocytic leukaemia, ATCC TIB-152), 24 h treatment, average of three experiments, read-out: IC50, cytotoxicity on the human Jurkat cell line
Method: The cytotoxicity of the compounds was assessed via flow cytometry with a viability assay using propidium iodide (PI), a DNA-binding fluorescent probe not permeant to live cells, which is commonly used to detect dead cells in a population. The human lymphocytic leukaemia Jurkat cell line (ATCC TIB-152) was obtained from the American Type Cell Culture (Sigma-Aldrich) and grown in suspension in an RPMI 1640 medium (Thermo Fisher Scientific, Waltham, MA, USA) supplemented with L-glutamine, antibiotics, and 10% heat-inactivated foetal calf serum (FCS, Thermo Fisher Scientific, Waltham, MA, USA). For the viability assay, cells were seeded in plastic 96-well plates at […] in an RPMI 1640 medium supplemented with 5% FCS. The cells were treated for 24 h with a range of concentrations of the test compounds or with the same volume of phosphate buffer (PBS) in control wells. After incubation, cell suspensions were washed, resuspended in 400 μL fresh medium, and incubated for 5 min at room temperature in the dark with 3.75 μM PI (Sigma-Aldrich). Cell viability was determined via flow cytometry using a Gallios flow cytometer (Beckman Coulter). PI fluorescence was excited with an argon-ion laser at 488 nm and collected through a 620/630 nm band-pass emission. Cellular events were discriminated from debris using forward scatter (FS) and side scatter (SS) signals. Cell aggregates were excluded from analysis based on FS-integral and FS-peak. The gates applied for population discrimination were set manually based on control samples. For each sample, 10,000 events were collected. For further analysis, the cytometric data were exported to Kaluza 2.1 software (Beckman Coulter, Brea, CA, USA). Dead cells were identified and quantified as PI-positive events. The cytotoxic potency of test compounds was quantified using their IC50 values, i.e., the compound concentration at which cell viability is inhibited by 50%, as calculated via curve fitting and determined with the correlation coefficient (R2) using GraphPad Prism 9.0 software. Experiments were carried out in triplicate.

[4] = yeast strain not specified (Tables 5 and 10)

Row | Molecule | MIC [1] | MIC [2, 4] | MBC (E. coli JM101) | Minimal fungicidal concentration (MFC), S. cerevisiae Strains (S. cerevisiae strains) | IC50 at 24 h [3] | MIC [2] | Minimal bactericidal concentration (MBC), E. coli JM101 (E. coli JM101) | MIC, Bacteria, S. aureus BHI [1] | MIC Yeast [2, 4]
1 | c1cc2nc(c1)CNCCN(CCNCc1ccc3c(c1)OCO3)CCNC2 [Compound 5a, 2-(3,6,9-triaza-1(2,6)-pyridinacyclodecaphane-6-yl)-N-(benzo[d][1,3]dioxol-5-ylmethyl)ethan-1-amine] | 35 µg/mL | 60 µg/mL (≈ 156 µM) | 10 µg/mL (≈ 26.1 µM) | Fungistatic | 37.8 µg/mL (≈ 98.7 µM) |  |  |  | 
2 | Oc1ccccc1CNCCN1CCNCc2cccc(n2)CNCC1 [Compound 6a] | 40 µg/mL | 45 µg/mL (≈ 127 µM) | 10 µg/mL (≈ 28.1 µM) | Fungistatic | 98 µg/mL (≈ 276 µM) |  |  |  | 
3 | Oc1ccc(CNCCN2CCNCc3cccc(n3)CNCC2)cc1 [Compound 7a] | 135 µg/mL |  |  |  | 951 µg/mL (≈ 2670 µM) | 295 µg/mL (≈ 830 µM) | Bacteriostatic |  | 
4 | c1cc2nc(c1)CNCCN(CCNCc1ccc3c(c1)CCO3)CCNC2 [Compound 8a, 2-(3,6,9-triaza-1(2,6)-pyridinacyclodecaphane-6-yl)-N-((2,3-dihydrobenzofuran-5-yl)methyl)ethan-1-amine] | 100 µg/mL | 400 µg/mL (≈ 1050 µM) | 60 µg/mL (≈ 157 µM) |  | 128 µg/mL (≈ 335 µM) |  |  |  | 
5 | N^1-(benzo[d][1,3]dioxol-5-ylmethyl)-N^3-(2-((2-((3-((benzo[d][1,3]dioxol-5-ylmethyl)amino)propyl)amino)ethyl)(2-((3-(((2,3-dihydrobenzofuran-6-yl)methyl)amino)propyl)amino)ethyl)amino)ethyl)propane-1,3-diamine [Compound 4a] |  |  |  | Fungistatic |  |  | 10 ^a µg/mL | 4 µg/mL | 150 µg/mL
